Reference: patent publication EP4640206A1, “NISIN FOR INHIBITING BIOFILMS” (SkyLab AG, priority 2024, dated 2025)

Tested on: multispecies biofilms
Experiment: Follow-up observation of pH of washes of a laboratory model of multispecies biofilms in 10% sucrose
Type: cell-based
Details: for Value of pH decrease within 30 min. of measurement (%): compared to the initial value
Experimental: Example No. 3. Follow-up observation of pH of washes of a laboratory model of multispecies biofilms.
To perform this test, it was necessary to obtain multispecies biofilms of bacteria. A 72-well, round-bottom, polystyrene plate for titration was used as an adhesive surface for growing multispecies biofilms. The inner surface was processed with a round abrasive drill bit, with visual inspection of the procedure. Then the plate was washed and immersed into isopropyl alcohol for 10 min. followed by 3-fold washing in distilled water.
Saliva was collected in the fasting state by spitting into a sterile centrifuge tube. Saliva was used to prepare inoculum with the following composition: 96.5 ml of saliva, 1 ml of 10% sucrose, 3.5 ml of S.mutans suspension 0.8 units of McF.
To obtain biofilms, the prepared inoculum was poured 1 ml into all wells of the prepared plate, after which the wells were covered with a similar plate and sealed with parafilm film. The plate was placed on a shaker pad with variable surface slope placed in a CO2 incubator and incubated overnight (16 hours). The contents of the wells were then extracted with an aspirator by dipping the plastic tip into the center of the well until completely drained. 1 ml of soy-casein broth was added to all wells of the plate with an automatic pipette. The plate was placed into the incubator. The described cycle was repeated for four days.
Biofilm formation was monitored visually by gram staining. After four days, the contents of the wells were extracted with an aspirator. All 6 wells of the first row were filled with 1 ml of deionized water and left for 5 min. Water was extracted with an aspirator; 1 ml of the test drug was added into the wells, in 1 min. the drug was removed, the wells were filled for 1 min. with deionized water, then it was removed. 250 µl of 10% sucrose solution was added to the wells. The formed biofilms were scraped off with a disposable loop (10µl); the suspension of two neighboring wells was combined and transferred to three Eppendorfs. Sample combination allowed increasing the volume of the analyzed suspension sample up to 0.5 ml, which in turn allowed carrying out pH measurements in free volume with the necessary reserve at high density of biofilm culture of microorganisms and optimal time for the sample measurement procedure (20 sec.). After combination of the samples, pH was immediately measured. The measurement time points were 0, 1, 2, 3, 4, 5, 6, 6, 7, 8, 9, 10, 15,20,30 min. The results of pH changes in multispecies dental biofilms in the presence of sucrose under the influence of active ingredients are shown in Figure 3 and Tables 3-4. Table 3. Results of pH measurements of mechanically disrupted multispecies biofilms in 10% sucrose solution, follow-up (10% sucrose solution pH-6.98).

With `NC(N)=O` [Urea, reference compound] the “pH of mechanically disrupted multispecies biofilms” value (Urea 0.5%, 0 min) was 6.4±0.006, the “pH of mechanically disrupted multispecies biofilms” value (Urea 0.5%, 1 min) was 6.4±0.006 and the “pH change (in brackets), multispecies biofilms” value (“pH change (in brackets)” below) (Urea 0.5%, 1 min vs previous time point) was 0. The “pH of mechanically disrupted multispecies biofilms” value (Urea 0.5%, 2 min) was 6.4±0.006, the “pH change (in brackets)” value (Urea 0.5%, 2 min vs previous time point) was 0 and the “pH of mechanically disrupted multispecies biofilms” value (Urea 0.5%, 3 min) was 6.4±0.006. The “pH change (in brackets)” value (Urea 0.5%, 3 min vs previous time point) was 0, the “pH of mechanically disrupted multispecies biofilms” value (Urea 0.5%, 4 min) was 6.41±0.006 and the “pH change (in brackets)” value (Urea 0.5%, 4 min vs previous time point) was “+0.01”. The “pH of mechanically disrupted multispecies biofilms” value (Urea 0.5%, 5 min) was 6.42±0.006, the “pH change (in brackets)” value (Urea 0.5%, 5 min vs previous time point) was “+0.01” and the “pH of mechanically disrupted multispecies biofilms” value (Urea 0.5%, 6 min) was 6.44±0.006. For the same compound, the “pH change (in brackets)” value (Urea 0.5%, 6 min vs previous time point) was “+0.02”, the “pH of mechanically disrupted multispecies biofilms” value (Urea 0.5%, 7 min) was 6.45±0.006 and the “pH change (in brackets)” value (Urea 0.5%, 7 min vs previous time point) was “+0.01”. The “pH of mechanically disrupted multispecies biofilms” value (Urea 0.5%, 8 min) was 6.43±0.02, the “pH change (in brackets)” value (Urea 0.5%, 8 min vs previous time point) was -0.02 and the “pH of mechanically disrupted multispecies biofilms” value (Urea 0.5%, 9 min) was 6.43±0.0. The “pH change (in brackets)” value (Urea 0.5%, 9 min vs previous time point) was 0, the “pH of mechanically disrupted multispecies biofilms” value (Urea 0.5%, 10 min) was 6.42±0.0 and the “pH change (in brackets)” value (Urea 0.5%, 10 min vs previous time point) was -0.01. For the same compound, the “pH of mechanically disrupted multispecies biofilms” value (Urea 0.5%, 15 min) was 6.25±0.01, the “pH change (in brackets)” value (Urea 0.5%, 15 min vs previous time point) was -0.17 and the “pH of mechanically disrupted multispecies biofilms” value (Urea 0.5%, 20 min) was 6.18±0.02. For the same compound, the “pH change (in brackets)” value (Urea 0.5%, 20 min vs previous time point) was -0.07, the “pH of mechanically disrupted multispecies biofilms” value (Urea 0.5%, 30 min) was 5.97±0.02 and the “pH change (in brackets)” value (Urea 0.5%, 30 min vs previous time point) was -0.21. For the same compound, the “Value of pH decrease within 30 min. of measurement (%)” value (Urea 0.5%) was -6.7%.
In the case of Nisin, the “pH of mechanically disrupted multispecies biofilms” value (Nisin 0.004%, 0 min) is reported as 6.32±0.006, the “pH of mechanically disrupted multispecies biofilms” value (Nisin 0.004%, 1 min) is reported as 6.3±0.006 and the “pH change (in brackets)” value (Nisin 0.004%, 1 min vs previous time point) is reported as -0.02. The “pH of mechanically disrupted multispecies biofilms” value (Nisin 0.004%, 2 min) was 6.28±0.0, the “pH change (in brackets)” value (Nisin 0.004%, 2 min vs previous time point) was -0.02 and the “pH of mechanically disrupted multispecies biofilms” value (Nisin 0.004%, 3 min) was 6.26±0.006. The “pH change (in brackets)” value (Nisin 0.004%, 3 min vs previous time point) was -0.02, the “pH of mechanically disrupted multispecies biofilms” value (Nisin 0.004%, 4 min) was 6.24±0.01 and the “pH change (in brackets)” value (Nisin 0.004%, 4 min vs previous time point) was -0.02. The “pH of mechanically disrupted multispecies biofilms” value (Nisin 0.004%, 5 min) was 6.22±0.006, the “pH change (in brackets)” value (Nisin 0.004%, 5 min vs previous time point) was -0.02 and the “pH of mechanically disrupted multispecies biofilms” value (Nisin 0.004%, 6 min) was 6.2±0.0. The “pH change (in brackets)” value (Nisin 0.004%, 6 min vs previous time point) was -0.02, the “pH of mechanically disrupted multispecies biofilms” value (Nisin 0.004%, 7 min) was 6.2±0.006 and the “pH change (in brackets)” value (Nisin 0.004%, 7 min vs previous time point) was 0. The “pH of mechanically disrupted multispecies biofilms” value (Nisin 0.004%, 8 min) was 6.19±0.0, the “pH change (in brackets)” value (Nisin 0.004%, 8 min vs previous time point) was -0.01 and the “pH of mechanically disrupted multispecies biofilms” value (Nisin 0.004%, 9 min) was 6.19±0.006. The “pH change (in brackets)” value (Nisin 0.004%, 9 min vs previous time point) was 0, the “pH of mechanically disrupted multispecies biofilms” value (Nisin 0.004%, 10 min) was 6.18±0.0 and the “pH change (in brackets)” value (Nisin 0.004%, 10 min vs previous time point) was -0.01. For the same compound, the “pH of mechanically disrupted multispecies biofilms” value (Nisin 0.004%, 15 min) was 6.12±0.006, the “pH change (in brackets)” value (Nisin 0.004%, 15 min vs previous time point) was -0.06 and the “pH of mechanically disrupted multispecies biofilms” value (Nisin 0.004%, 20 min) was 6.11±0.0. For the same compound, the “pH change (in brackets)” value (Nisin 0.004%, 20 min vs previous time point) was -0.01, the “pH of mechanically disrupted multispecies biofilms” value (Nisin 0.004%, 30 min) was 6.07±0.006 and the “pH change (in brackets)” value (Nisin 0.004%, 30 min vs previous time point) was -0.04. The “Value of pH decrease within 30 min. of measurement (%)” value (Nisin 0.004%) was -3.95%, the “Value of pH decrease within 30 min. of measurement (%)” value (Nisin 0.008%) was -8.7% and the “pH of mechanically disrupted multispecies biofilms” value (Nisin 0,008%, 0 min) was 6.54±0.006. For the same compound, the “pH of mechanically disrupted multispecies biofilms” value (Nisin 0,008%, 1 min) was 6.45±0.006, the “pH change (in brackets)” value (Nisin 0,008%, 1 min vs previous time point) was -0.09 and the “pH of mechanically disrupted multispecies biofilms” value (Nisin 0,008%, 2 min) was 6.4±0.006. The “pH change (in brackets)” value (Nisin 0,008%, 2 min vs previous time point) was -0.05, the “pH of mechanically disrupted multispecies biofilms” value (Nisin 0,008%, 3 min) was 6.35±0.006 and the “pH change (in brackets)” value (Nisin 0,008%, 3 min vs previous time point) was -0.05. The “pH of mechanically disrupted multispecies biofilms” value (Nisin 0,008%, 4 min) was 6.3±0.006, the “pH change (in brackets)” value (Nisin 0,008%, 4 min vs previous time point) was -0.05 and the “pH of mechanically disrupted multispecies biofilms” value (Nisin 0,008%, 5 min) was 6.22±0.01. The “pH change (in brackets)” value (Nisin 0,008%, 5 min vs previous time point) was -0.08, the “pH of mechanically disrupted multispecies biofilms” value (Nisin 0,008%, 6 min) was 6.16±0.006 and the “pH change (in brackets)” value (Nisin 0,008%, 6 min vs previous time point) was -0.06. The “pH of mechanically disrupted multispecies biofilms” value (Nisin 0,008%, 7 min) was 6.1±0.01, the “pH change (in brackets)” value (Nisin 0,008%, 7 min vs previous time point) was -0.06 and the “pH of mechanically disrupted multispecies biofilms” value (Nisin 0,008%, 8 min) was 6.0±0.02. For the same compound, the “pH change (in brackets)” value (Nisin 0,008%, 8 min vs previous time point) was -0.1, the “pH of mechanically disrupted multispecies biofilms” value (Nisin 0,008%, 9 min) was 5.99±0.006 and the “pH change (in brackets)” value (Nisin 0,008%, 9 min vs previous time point) was -0.01. The “pH of mechanically disrupted multispecies biofilms” value (Nisin 0,008%, 10 min) was 5.98±0.0, the “pH change (in brackets)” value (Nisin 0,008%, 10 min vs previous time point) was -0.01 and the “pH of mechanically disrupted multispecies biofilms” value (Nisin 0,008%, 15 min) was 5.97±0.006. For the same compound, the “pH change (in brackets)” value (Nisin 0,008%, 15 min vs previous time point) was -0.01, the “pH of mechanically disrupted multispecies biofilms” value (Nisin 0,008%, 20 min) was 5.96±0.006 and the “pH change (in brackets)” value (Nisin 0,008%, 20 min vs previous time point) was -0.01. For the same compound, the “pH of mechanically disrupted multispecies biofilms” value (Nisin 0,008%, 30 min) was 5.97±0.006, the “pH change (in brackets)” value (Nisin 0,008%, 30 min vs previous time point) was “+0.01” and the “effect on the value of acidity in the multispecies biofilm affected by sucrose” value (nisin 0.004 and 0.008%) was “stabilizing effect”.
